Measured values from paper PMC3665846, “Evolution of a Potential Hormone Antagonist following Gene Splicing during Primate Evolution” (PLoS ONE, 2013).
No end group written: not given here.

How the values were obtained:
[1] = system: LGR7; assay: relaxin-stimulated CRE-luciferase activity in LGR7-expressing cells (specificity control); format: cell-based; settings: CCKsv 0.1 uM or 1 uM, co-treatment with relaxin, Fig. S6
[2] = system: CCKA receptor; assay: CCKA receptor luciferase reporter assay, antagonism of CCK-8; format: cell-based; settings: CCKsv 0.1 uM or 1 uM, 30 min pre-incubation
Protocol: (§1) HEK293T cells seeded in 24-well plates were co-transfected by various luciferase reporters (30 ng), the pSV-β-Gal plasmid (3 ng), and the CCKA or CCKB receptor (30 ng). After 1 day, cells were treated in serum-free media for another 18 h with increasing doses of the CCK-8 or CCKsv peptide. For the estimation of antagonistic activities, cells were pre-incubated (30 min.) with the CCKsv peptide before treatment with CCK8 for 18 h. Luciferase activities were determined using luciferase assay kits (Promega) and normalized using β-galactosidase activities. All experiments were performed at least three times in triplicates. Data were analyzed using Graphpad Prism 5.0.

[3] = system: CCKA receptor; assay: CCKA receptor luciferase reporter assay, agonism; format: cell-based; settings: CRE-, SRE-, NFAT-, 18 h
Protocol: as §1

[4] = system: CCKB receptor; assay: CCKB receptor luciferase reporter assay, antagonism of CCK-8; format: cell-based
Protocol: as §1

[5] = system: SK-PN-DW cells; assay: Ewing tumor cell growth, SK-PN-DW, crystal violet staining; format: cell-based; settings: CCK-8 0.1 uM, 6 days; for suppression of CCK-stimulated growth, SK-PN-DW: serum-free, CCKsv 30 min pre-treatment, at least 3 independent experiments
Protocol: (§2) SK-N-MC and SK-PN-DW cells (1×10^5) were plated in 12-well plates and allowed to attach for 24–36 h. Cells were then cultured in serum-free media with 0.1 uM of the CCK-8 peptide with or without the CCKsv peptide. Fresh media containing peptides were replaced every two days. […] Cell growth was determined by crystal violet staining.

[6] = system: CCKB receptor; assay: CCKB receptor luciferase reporter assay, agonism; format: cell-based; settings: 18 h
Protocol: as §1

[7] = system: SK-N-MC cells; assay: Ewing tumor cell growth, SK-N-MC, crystal violet staining; format: cell-based, human; settings: CCK-8 0.1 uM, 6 days; for suppression of CCK-stimulated growth, SK-N-MC: serum-free, CCKsv 30 min pre-treatment, at least 3 independent experiments
Protocol: as §2

[8] = system: release of pancreatic enzymes and the contraction of the gallbladder; settings: ref [10]–[12]; cited from earlier work
Description: Alternative splicing allows the generation of various gene products with different functions from a single gene and is a major mechanism of generating protein diversity in eukaryotes [1]–[5]. At least half, or more, of mammalian genes can be alternatively spliced, [2]. Thus, alternative splicing emerges as a major mechanism of generating protein diversity and splicing of coding regions in peptide hormone genes often results in additional protein domains. Calcitonin and calcitonin-related polypeptide represent the classical example of novel hormone evolution from the same gene ...

[9] = system: various cancer cell lines; settings: ref [23]–[27]; cited from earlier work
Protocol: Because treatment with a CCK antagonist inhibits proliferation of Ewing tumor cells, CCK antagonist could represent a new therapeutic approach in the management of Ewing's tumor patients. To further confirm the potential antagonist function of CCKsv, we checked if CCKsv could inhibit Ewing tumor cell growth stimulated by CCK. Two Ewing tumor cell lines (SK-N-MC and SK-PN-DW) were cultured with the CCK-8 peptide (0.1 uM) in the presence or absenc ...

In the case of “GKNAASPSLTSALVPRLPMLTLFSSASLMGMTSL-amidated (GKNAASPSLTSALVPRLPMLTLFSSASLMGMTSL-NH2) [CCKsv, splicing variant of human CCK; predicted mature peptide chemically synthesized, C-terminally amidated]”, the “effect on luciferase activity stimulated by relaxin” value [1] is reported as “did not alter relaxin signaling”, the “inhibition of CCK-8-stimulated CRE luciferase activity, CCKA” value ([2]; Fig. 3A, HEK293T, increasing doses of CCK-8, 18 h) is reported as “inhibited” and the “inhibition of CCK-8-stimulated SRF luciferase activity, CCKA” value ([2]; Fig. 3B, HEK293T, increasing doses of CCK-8, 18 h) is reported as “inhibited”. The “suppression of CCK8 actions by CCKsv pretreatment, CCKA” value ([2]; HEK293T + CCKA, then CCK-8 (various doses) 18 h, luciferase) was “dose-dependent suppression of CCK8 actions”, the “stimulation of G protein pathways by CCKsv via CCKA (agonism)” value ([3]; HEK293T + CCKA, SRF-RE-luciferase (Gs, Gi, Gq, G12), Fig. S5) was “not capable of stimulating different G proteins (Gs, Gi, Gq, and G12)” and the “suppression of CCK-8-stimulated CRE luciferase activity” value ([4]; Fig. 3C, HEK293T + CCKB, CRE reporter, 1 uM CCKsv (30 min pre-incubation), CCK-8 30 nM, 18 h) was ~60%. The “inhibition of CCK-8-stimulated CRE luciferase activity, CCKB” value ([4]; Fig. 3C, HEK293T, CCKsv 0.1 uM or 1 uM, 30 min pre-incubation, increasing doses of CCK-8, 18 h) was “inhibited”, the “suppression of CCK-8-stimulated SRF luciferase activity” value ([4]; Fig. 3D, HEK293T + CCKB, SRF reporter, 1 uM CCKsv (30 min pre-incubation), CCK-8 30 nM, 18 h) was ~60% and the “inhibition of CCK-8-stimulated SRF luciferase activity, CCKB” value ([4]; Fig. 3D, HEK293T, CCKsv 0.1 uM or 1 uM, 30 min pre-incubation, increasing doses of CCK-8, 18 h) was “inhibited”. The “inhibition of CCK-8-stimulated SRE luciferase activity, CCKB” value ([4]; Fig. 3E, HEK293T, CCKsv 0.1 uM or 1 uM, 30 min pre-incubation, increasing doses of CCK-8, 18 h) was “inhibited”, the “suppression of CCK8 actions by CCKsv pretreatment, CCKB” value ([4]; HEK293T + CCKB, CCKsv 0.1 uM or 1 uM, 30 min pre-incubation, then CCK-8 (various doses) 18 h, luciferase) was “dose-dependent suppression of CCK8 actions” and the “suppression of CCK-stimulated growth, SK-PN-DW” value ([5]; 0.1 uM CCKsv, Fig. 4B) was 18%. For the same substance, the “suppression of CCK-stimulated growth, SK-PN-DW” value ([5]; 1 uM CCKsv, Fig. 4B) was 31%, the “effect of CCKsv on CCK-stimulated growth, SK-PN-DW” value ([5]; CCKsv 0.1 uM or 1 uM) was “dose-dependently reduced CCK-stimulated growth” and the “stimulation of G protein pathways by CCKsv via CCKB (agonism)” value ([6]; HEK293T + CCKB, CRE-, SRE-, NFAT-, SRF-RE-luciferase (Gs, Gi, Gq, G12), Fig. S5) was “not capable of stimulating different G proteins (Gs, Gi, Gq, and G12)”. For the same substance, the “suppression of CCK-stimulated growth, SK-N-MC” value ([7]; 0.1 uM CCKsv, Fig. 4A) was 22%, the “suppression of CCK-stimulated growth, SK-N-MC” value ([7]; 1 uM CCKsv, Fig. 4A) was 38% and the “effect of CCKsv on CCK-stimulated growth, SK-N-MC” value ([7]; CCKsv 0.1 uM or 1 uM) was “dose-dependently reduced CCK-stimulated growth”.

For Cholecystokinin [CCK], the “release of pancreatic enzymes and gallbladder contraction” value [8] is given as “induce the release of pancreatic enzymes and the contraction of the gallbladder” and the “cell proliferation in cancer cell lines” value [9] is given as “induces cell proliferation”.

In the case of “CCK-8: CCK-8 peptide purchased from Phoenix Pharmaceuticals Inc. [reference compound]”, the “stimulation of luciferase reporters by CCK-8 via CCKA” value ([3]; HEK293T cells co-transfected with reporter, pSV-β-Gal and CCKA, serum-free, SRF-RE reporters screened, normalized to β-galactosidase, at least three times in triplicates) is reported as “stimulated CRE- and SRF-RE reporters via CCKA”, the “Ewing tumor cell growth with CCK-8, SK-PN-DW” value ([5]; serum-free media, replaced every two days, Fig. 4B) is reported as “growth stimulated by CCK-8 peptide” and the “stimulation of luciferase reporters by CCK-8 via CCKB” value ([6]; HEK293T cells co-transfected with reporter, pSV-β-Gal and CCKB, serum-free, CRE-, SRE-, NFAT-, SRF-RE reporters screened, normalized to β-galactosidase, at least three times in triplicates) is reported as “stimulation of CRE-, SRE- and SRF-RE reporters”. The “responsiveness to CCK-8 of cells with CRE reporter and CCKB receptor” value ([6]; HEK293T, CRE-luciferase, CCKB, compared with other reporter/receptor combinations (Fig. 3C)) was “most responsive to CCK-8 peptide stimulation” and the “Ewing tumor cell growth with CCK-8, SK-N-MC” value ([7]; serum-free media, replaced every two days, Fig. 4A) was “growth stimulated by CCK-8 peptide”.
